From patent EP3064205A1, “Therapeutic use of isomeric forms of 2-(4-chlorophenyl)quinolin-4-yl)(piperidin-2-yl)methanol” (Glionova AB, priority 2015, dated 2016)
Where two headings read alike, the source gives them in different places.

Key:
KPC cells = assay: ATP viability assay (CellTiter-Glo), 3D culture, automatic drug screen; format: cell-based, mouse; settings: 72h
Description: Panc-1, HPAF II, KPC pancreatic adenocarcinoma cell lines were trypsin-treated and counted using the Casy Cell Counter according to the manufacturer's recommendations (GmbH). Subsequently, they were seeded onto round bottom non-tissue culture treated 96 well-plates (Falcon, BD NJ, USA) at a concentration of 2500 cells/well in 100 µl DMEM-F12 or phenol red-free DMEM-F12 medium, containing 10% FCS and supplemented with 20% methyl cellulose stock solution. For preparation of methylcellulose stock solution, 6 grams of methylcellulose powder (M0512, Sigma-Aldrich) was autoclaved in a 500 ml flask containing a magnetic stirrer (the methylcellulose powder is resistant to this procedure). The autoclaved methylcellulose was dissolved in preheated 250 ml basal medium (60°C) for 20 min (using the magnetic stirrer). Thereafter, 250 ml medium (room temperature) containing double amount of FCS (20%) was added to a final volume of 500 ml and the whole solution mixed overnight at 4°C. The final stock solution was aliquoted and cleared by centrifugation (5000g, 2 h, room temperature). […]
In order to confirm the results presented in figure 1, S1 was further tested in 2 different cell lines in 3D culture format, using an automatic drug screening assay. The effect of Vacquinol-1 RS (S1) on cell viability was measured after 72h using the CellTiter-Glo assay (Promega) adapted for 3D culture.

PXF 1752 = assay: 3D clonogenic assay (PDX); format: cell-based, human; settings: PXF 1752, Pleuramesothelioma; for IC50: Homo sapiens
How it was run: (§1)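 PDX tumors from NMRI nu/nu mice were enzymatically dissociated into cell suspensions and plated in soft agar. After 24 h, cells received continuous exposure to 10 concentrations (50 µM down to 0.0015 µM, in duplicate) for 8–13 days at 37 °C. Colonies >50 µm were stained with INT tetrazolium and counted by automated imaging; IC50 values came from 4-parameter fits.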

GXA 3040 = assay: 3D clonogenic assay (PDX); format: cell-based, human; settings: GXA 3040, Asian Gastric; for IC50: Homo sapiens
How it was run: as §1

OVXF 899 = assay: 3D clonogenic assay (PDX); format: cell-based, human; settings: OVXF 899, Ovarian; for IC50: Homo sapiens
How it was run: as §1

HNXF 1853 = assay: 3D clonogenic assay (PDX); format: cell-based, human; settings: HNXF 1853, Head and Neck; for IC50: Homo sapiens
How it was run: as §1

MEXF 276 = assay: 3D clonogenic assay (PDX); format: cell-based, human; settings: MEXF 276, Melanoma; for IC50: Homo sapiens
How it was run: as §1

## O[C@H](c1cc(-c2ccc(Cl)cc2)nc2ccccc12)[C@@H]1CCCCN1 [S1, (R)-(2-(4-chlorophenyl)quinolin-4-yl)((S)-piperidin-2-yl)methanol]
KPC cells; 10 µM
  reduction in viability: ~50%
KPC cells; 30-15 µM
  viability compared to control: complete loss of viability
PXF 1752; read-out: abs. IC50
  IC50: 8.98 µM
PXF 1752; read-out: rel. IC50
  IC50: 8.85 µM
PXF 1752
  b (bottom plateau of concentration-effect curve): 15
  t (top plateau of concentration-effect curve): 109
GXA 3040
  b (bottom plateau of concentration-effect curve): 13
  t (top plateau of concentration-effect curve): 94
GXA 3040; read-out: abs. IC50
  IC50: 8.84 µM
GXA 3040; read-out: rel. IC50
  IC50: 8.79 µM
OVXF 899; read-out: abs. IC50
  IC50: 6.38 µM
OVXF 899; read-out: rel. IC50
  IC50: 6.16 µM
OVXF 899
  b (bottom plateau of concentration-effect curve): 18
  t (top plateau of concentration-effect curve): 100
HNXF 1853
  b (bottom plateau of concentration-effect curve): 50
  t (top plateau of concentration-effect curve): 106
HNXF 1853; read-out: abs. IC50
  IC50: 50 µM
HNXF 1853; read-out: rel. IC50
  IC50: 8.77 µM
MEXF 276; read-out: abs. IC50
  IC50: 4.73 µM
MEXF 276; read-out: rel. IC50
  IC50: 4.65 µM
MEXF 276
  b (bottom plateau of concentration-effect curve): 15
  t (top plateau of concentration-effect curve): 95
